Laboratory results reported in the supplement of paper PMC11208160.

Assay: recombinant UMI read abundance after kanamycin selection (control-corrected) (log10(CPM+1)); higher = more efficient recombination; extreme values may be limits of the assay; sequences stand for … in AGTGCAGAGAAAATCGGCCAGTTTTCTCTGCCTGCAGTCCGCATGCCGTGGGACCCCTTGGGTTCTAACCTGTTGCCTAGATTTATGCAGCGGACTGCCTTTCTCCCAAAGTGATAAACCGG…AGGTTGGTTTCACT; site = the 11-nt donor
How it was run: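 For the IS621 bridge recombinase, a pooled Escherichia coli screen tested donor and donor-binding-loop pairs. Cells received the pair library together with a target plasmid encoding a fixed target and T7-inducible recombinase, then went onto IPTG (0.07 mM) plus kanamycin or unselected plates in duplicate. After PCR across the donor–target junction and sequencing, recombinant UMI counts were normalized to CPM, averaged, and scaled by control-derived factors. Each value is given as log10(CPM+1).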
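Also: IS621 bridge recombinase in Escherichia coli cells against a fixed T5 target plasmid.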

Sequence	recombinant UMI read abundance (log10)
CAGTCGTCATGGACCGGTTTTCCCGGTAATCCGTATTTGGG (site CAGTCGTCTCC)	0.348
CAGTGCTCATGGACCGGTTTTCCCGGTAATCCGTATTTGAA (site CAATGCTCTTT)	1.35
CAGTGCTCATGGACCGGTTTTCCCGGTAATCCGTATTTGAA (site CACTGCTCTTT)	0.28
CAGTGCTCATGGACCGGTTTTCCCGGTAATCCGTATTTGAA (site CAGTGCTCTTT)	2.48
CAGTGCTCATGGACCGGTTTTCCCGGTAATCCGTATTTGAA (site CATTGCTCTTT)	0.0098
CAGTGGACATGGACCGGTTTTCCCGGTAATCCGTATTTGGG (site CAGTAGACTCC)	0.368
CAGTGGACATGGACCGGTTTTCCCGGTAATCCGTATTTGGG (site CAGTCGACTCC)	0.0117
CAGTGGACATGGACCGGTTTTCCCGGTAATCCGTATTTGGG (site CAGTGGACTCC)	0.0835
CAGTGGACATGGACCGGTTTTCCCGGTAATCCGTATTTGGG (site CAGTTGACTCC)	0.0125
CAGTTAGCATGGACCGGTTTTCCCGGTAATCCGTATTTGTG (site CAGTTAGCTCA)	2.09
CAGTTAGCATGGACCGGTTTTCCCGGTAATCCGTATTTGTG (site CCGTTAGCTCA)	0.0219
CAGTTAGCATGGACCGGTTTTCCCGGTAATCCGTATTTGTG (site CGGTTAGCTCA)	0.347
CAGTTAGCATGGACCGGTTTTCCCGGTAATCCGTATTTGTG (site CTGTTAGCTCA)	0.364
CAGTTCCCATGGACCGGTTTTCCCGGTAATCCGTATTTGCT (site CAATTCCCTAG)	0.806
CAGTTCCCATGGACCGGTTTTCCCGGTAATCCGTATTTGCT (site CACTTCCCTAG)	0.644
CAGTTCCCATGGACCGGTTTTCCCGGTAATCCGTATTTGCT (site CAGTTCCCTAG)	0.863
CAGTTCCCATGGACCGGTTTTCCCGGTAATCCGTATTTGCT (site CATTTCCCTAG)	0.433
CAGTTGGCATGGACCGGTTTTCCCGGTAATCCGTATTTGGA (site CAATTGGCTTC)	0.882
CAGTTGGCATGGACCGGTTTTCCCGGTAATCCGTATTTGGA (site CACTTGGCTTC)	0.076
CAGTTGGCATGGACCGGTTTTCCCGGTAATCCGTATTTGGA (site CAGTTGGCTTC)	1.72
CAGTTGGCATGGACCGGTTTTCCCGGTAATCCGTATTTGGA (site CATTTGGCTTC)	0.00616
CATAATACATGGACCGGTTTTCCCGGTAATCCGTATTTGGC (site CATAATACTGC)	1.88
CATAATACATGGACCGGTTTTCCCGGTAATCCGTATTTGGC (site CCTAATACTGC)	0
CATAATACATGGACCGGTTTTCCCGGTAATCCGTATTTGGC (site CGTAATACTGC)	0
CATAATACATGGACCGGTTTTCCCGGTAATCCGTATTTGGC (site CTTAATACTGC)	0

Sequence	recombinant UMI read abundance (log10)
CATAGCCCATGGACCGGTTTTCCCGGTAATCCGTATTTGAG (site CATAGCCCTCT)	0.0141
CATATTGCATGGACCGGTTTTCCCGGTAATCCGTATTTGCA (site CATATTGCTTG)	0
CATATTGCATGGACCGGTTTTCCCGGTAATCCGTATTTGTT (site CATATTGCTAA)	1.21
CATCACACATGGACCGGTTTTCCCGGTAATCCGTATTTGGT (site CATCACACTAC)	1.24
CATCGAACATGGACCGGTTTTCCCGGTAATCCGTATTTGAT (site CATCGAACTAT)	0.616
CATCGAACATGGACCGGTTTTCCCGGTAATCCGTATTTGCT (site CATCGAACTAG)	2.31
CATCGGACATGGACCGGTTTTCCCGGTAATCCGTATTTGAA (site CATCGGACTTT)	1.53
CATCGGGCATGGACCGGTTTTCCCGGTAATCCGTATTTGCC (site CATCGGGCTGG)	1.31
CATCTTGCATGGACCGGTTTTCCCGGTAATCCGTATTTGCG (site CATCTTGCTCG)	0.00609
CATCTTTCATGGACCGGTTTTCCCGGTAATCCGTATTTGGT (site CATCTTTCTAC)	0.00559
CATGCGCCATGGACCGGTTTTCCCGGTAATCCGTATTTGTG (site CAAGCGCCTCA)	0.0274
CATGCGCCATGGACCGGTTTTCCCGGTAATCCGTATTTGTG (site CACGCGCCTCA)	0.0136
CATGCGCCATGGACCGGTTTTCCCGGTAATCCGTATTTGTG (site CAGGCGCCTCA)	0.025
CATGCGCCATGGACCGGTTTTCCCGGTAATCCGTATTTGTG (site CATGCGCCTCA)	0.0238
CATGGCCCATGGACCGGTTTTCCCGGTAATCCGTATTTGTT (site CAAGGCCCTAA)	0.0112
CATGGCCCATGGACCGGTTTTCCCGGTAATCCGTATTTGTT (site CACGGCCCTAA)	0.00402
CATGGCCCATGGACCGGTTTTCCCGGTAATCCGTATTTGTT (site CAGGGCCCTAA)	0.0418
CATGGCCCATGGACCGGTTTTCCCGGTAATCCGTATTTGTT (site CATGGCCCTAA)	0.00575
CATTAGCCATGGACCGGTTTTCCCGGTAATCCGTATTTGGA (site CATTAGCCTTC)	0.0164
CATTCCACATGGACCGGTTTTCCCGGTAATCCGTATTTGCA (site CATTCCACTTG)	1.95
CATTCGACATGGACCGGTTTTCCCGGTAATCCGTATTTGGG (site CAATCGACTCC)	0.0123
CATTCGACATGGACCGGTTTTCCCGGTAATCCGTATTTGGG (site CACTCGACTCC)	0.0107
CATTCGACATGGACCGGTTTTCCCGGTAATCCGTATTTGGG (site CAGTCGACTCC)	0.0114
CATTCGACATGGACCGGTTTTCCCGGTAATCCGTATTTGGG (site CATTCGACTCC)	0.00677
CATTCTCCATGGACCGGTTTTCCCGGTAATCCGTATTTGAG (site CATTCTCCTCT)	0.0129

Sequence	recombinant UMI read abundance (log10)
CATTGAACATGGACCGGTTTTCCCGGTAATCCGTATTTGTT (site CATTGAACTAA)	0.0984
CATTGCACATGGACCGGTTTTCCCGGTAATCCGTATTTGTT (site CATTGCACTAA)	0.487
CATTGCTCATGGACCGGTTTTCCCGGTAATCCGTATTTGAA (site CAATGCTCTTT)	0.335
CATTGCTCATGGACCGGTTTTCCCGGTAATCCGTATTTGAA (site CACTGCTCTTT)	0.00354
CATTGCTCATGGACCGGTTTTCCCGGTAATCCGTATTTGAA (site CAGTGCTCTTT)	0.351
CATTGCTCATGGACCGGTTTTCCCGGTAATCCGTATTTGAA (site CATTGCTCTTT)	1.05
CCAAATTCATGGACCGGTTTTCCCGGTAATCCGTATTTGTT (site CCAAATTCTAA)	0
CCAACCCCATGGACCGGTTTTCCCGGTAATCCGTATTTGCT (site CCAACCCCTAG)	0
CCAACGGCATGGACCGGTTTTCCCGGTAATCCGTATTTGCG (site CCAACGGCTCG)	1.52
CCAACTACATGGACCGGTTTTCCCGGTAATCCGTATTTGAC (site CCAACTACTGT)	0.998
CCAAGGGCATGGACCGGTTTTCCCGGTAATCCGTATTTGCT (site CCAAGGGCTAG)	0
CCACCAGCATGGACCGGTTTTCCCGGTAATCCGTATTTGTA (site CCACCAGCTTA)	1.17
CCACTAACATGGACCGGTTTTCCCGGTAATCCGTATTTGGA (site CAACTAACTTC)	0.0202
CCACTAACATGGACCGGTTTTCCCGGTAATCCGTATTTGGA (site CCACTAACTTC)	0.235
CCACTAACATGGACCGGTTTTCCCGGTAATCCGTATTTGGA (site CGACTAACTTC)	0.0202
CCACTAACATGGACCGGTTTTCCCGGTAATCCGTATTTGGA (site CTACTAACTTC)	0.0175
CCACTATCATGGACCGGTTTTCCCGGTAATCCGTATTTGAC (site CCACTATCTGT)	1.02
CCACTATCATGGACCGGTTTTCCCGGTAATCCGTATTTGAC (site CTAGTATCTGT)	0
CCAGAGACATGGACCGGTTTTCCCGGTAATCCGTATTTGCG (site ACAGAGACTCG)	0.249
CCAGAGACATGGACCGGTTTTCCCGGTAATCCGTATTTGCG (site CCAGAGACTCG)	1.76
CCAGAGACATGGACCGGTTTTCCCGGTAATCCGTATTTGCG (site GCAGAGACTCG)	0.0188
CCAGAGACATGGACCGGTTTTCCCGGTAATCCGTATTTGCG (site TCAGAGACTCG)	0.381
CCAGCGCCATGGACCGGTTTTCCCGGTAATCCGTATTTGTG (site CAAGCGCCTCA)	0.0258
CCAGCGCCATGGACCGGTTTTCCCGGTAATCCGTATTTGTG (site CCAGCGCCTCA)	0.045
CCAGCGCCATGGACCGGTTTTCCCGGTAATCCGTATTTGTG (site CGAGCGCCTCA)	0.0423
